From paper PMC12216609, “Inhibitors of eIF1A-ribosome interaction unveil uORF-dependent regulation of translation initiation and antitumor and antiviral effects” (The EMBO Journal, 2025)
pIC50: −log10 of the molar value. Several values for one entry are separate records, joined by “and”; a condition that tells them apart may be missing. Equal entries are not always repeated. Where two headings read alike, the source gives them in different places.

What was measured:
eIF1A without NTT = target: T1, eIF1A without NTT (Homo sapiens, UniProt P47813); assay: Fluorescence binding assay with NTT-truncated eIF1A; conditions: for fluorescence ratio, eIF1A Δ NTT: background-corrected, relative to DMSO or lowest 1Ai concentration, replicate columns; for pIC50: eIF1A Δ NTT, from the titration data, read-out: IC50 (eIF1A Δ NTT titration block); for IC50: summary table, fluorescence binding assay, read-out: IC50 concentration (µM), NTT truncation
T1 construct: His-bdSUMO (cleaved yes); made in house; host or cells: E. coli (BL-21)

eIF1A = target: T2, eIF1A (Homo sapiens, UniProt P47813); type: binding; conditions: for fluorescence ratio, eIF1A: background-corrected, relative to DMSO or lowest 1Ai concentration, replicate columns; for IC50: summary table, fluorescence binding assay, read-out: IC50 concentration (µM), WT eIF1A
T2 construct: His-bdSUMO (cleaved yes); made in house; host or cells: E. coli BL-21

eIF1A-RPS10 interaction = target: T3, eIF1A-RPS10 interaction (Homo sapiens, UniProt P46783+P47813); assay: Split-Renilla luciferase eIF1A-RPS10 interaction screen, dose-response; type: biochemical; conditions: for IC50: summary table, read-out: IC50 concentration (µM), IC50 screen
T3 construct: made in house; host or cells: E. coli BL21 (PRSFduet); unpurified lysate supernatant
In short: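 eIF1A (C-terminus fused to N-terminal Renilla fragment, N-terminal tail left free) and RPS10 fused to the C-terminal Renilla fragment were expressed in BL21 E. coli (0.5 mM IPTG, overnight at 16 °C). Clarified lysates in TKE buffer served as the source of reconstituted luciferase activity; loss of signal indicated disrupted interaction.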

NSP1 = NSP1 (Severe acute respiratory syndrome coronavirus 2, UniProt P0DTD1)
eIF1A without CTT = target: T4, eIF1A without CTT (Homo sapiens, UniProt P47813); type: binding; conditions: for fluorescence ratio, eIF1A Δ CTT: background-corrected, relative to DMSO or lowest 1Ai concentration, replicate columns; for pIC50: eIF1A Δ CTT, from the titration data, read-out: IC50 (eIF1A Δ CTT titration block); for IC50: summary table, fluorescence binding assay, read-out: IC50 concentration (µM), CTT truncation
T4 construct: His-bdSUMO (cleaved yes); made in house; host or cells: E. coli (BL-21)
T4 sequence (P47813 1-114 limits assumed): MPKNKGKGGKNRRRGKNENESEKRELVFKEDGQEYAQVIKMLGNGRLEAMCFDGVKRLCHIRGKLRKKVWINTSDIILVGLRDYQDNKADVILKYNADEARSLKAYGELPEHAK

T3 sequence (P47813 whole entry, one chain of several): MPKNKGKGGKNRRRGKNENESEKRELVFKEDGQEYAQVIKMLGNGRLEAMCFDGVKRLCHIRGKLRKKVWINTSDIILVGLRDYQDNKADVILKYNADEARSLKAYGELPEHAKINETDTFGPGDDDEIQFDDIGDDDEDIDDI
T2 sequence (P47813 whole entry): as the sequence (P47813 whole entry, one chain of several) above
T1 sequence (P47813 31-144 limits assumed): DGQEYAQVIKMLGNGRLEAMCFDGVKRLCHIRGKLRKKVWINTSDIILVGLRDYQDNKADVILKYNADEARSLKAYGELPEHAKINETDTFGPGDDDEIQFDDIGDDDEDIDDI

In the case of `COc1cccc(Nc2nc(-c3ccc(NC(C)=O)cc3)c(C)s2)c1` [1Ai-1869], the “fluorescence ratio, eIF1A Δ NTT” value (eIF1A without NTT; 1Ai conc. 0.25 uM) was 1, the “fluorescence ratio, eIF1A Δ NTT” value (eIF1A without NTT; 1Ai conc. 0.5 uM) was 0.9867 and the “fluorescence ratio, eIF1A Δ NTT” value (eIF1A without NTT; 1Ai conc. 1 uM) was 1.085. The “fluorescence ratio, eIF1A Δ NTT” value (eIF1A without NTT; 1Ai conc. 2 uM) was 0.9841, the “fluorescence ratio, eIF1A Δ NTT” value (eIF1A without NTT; 1Ai conc. 4 uM) was 0.9947 and the “fluorescence ratio, eIF1A Δ NTT” value (eIF1A without NTT; 1Ai conc. 8 uM) was 0.9125. For the same compound, the “fluorescence ratio, eIF1A Δ NTT” value (eIF1A without NTT; 1Ai conc. 16 uM) was 0.8674, the “fluorescence ratio, eIF1A Δ NTT” value (eIF1A without NTT; 1Ai conc. 32 uM) was 0.7984 and the “fluorescence ratio, eIF1A Δ NTT” value (eIF1A without NTT; 1Ai conc. 64 uM) was 0.7082. The “fluorescence ratio, eIF1A Δ NTT” value (eIF1A without NTT; 1Ai conc. 256 uM) was 0.6737, the pIC50 (eIF1A without NTT) was 4.67 and the IC50 (eIF1A without NTT) was 21.3 µM. For the same compound, the “fluorescence ratio, eIF1A” value (eIF1A; 1Ai conc. 0.25 uM) was 0.7968 and 0.7342, the “fluorescence ratio, eIF1A” value (eIF1A; 1Ai conc. 0.5 uM) was 0.8838 and 0.7405 and the “fluorescence ratio, eIF1A” value (eIF1A; 1Ai conc. 1 uM) was 0.8128 and 0.72. The “fluorescence ratio, eIF1A” value (eIF1A; 1Ai conc. 2 uM) was 1.007 and 0.8137, the “fluorescence ratio, eIF1A” value (eIF1A; 1Ai conc. 4 uM) was 0.913 and 0.7844 and the “fluorescence ratio, eIF1A” value (eIF1A; 1Ai conc. 8 uM) was 0.7676 and 0.6709. The “fluorescence ratio, eIF1A” value (eIF1A; 1Ai conc. 16 uM) was 0.6554 and 0.584, the “fluorescence ratio, eIF1A” value (eIF1A; 1Ai conc. 32 uM) was 0.5701 and 0.4814 and the “fluorescence ratio, eIF1A” value (eIF1A; 1Ai conc. 64 uM) was 0.4848 and 0.4176. For the same compound, the “fluorescence ratio, eIF1A” value (eIF1A; 1Ai conc. 256 uM) was 0.3469 and 0.3333, the pIC50 (eIF1A; eIF1A, from the titration data, read-out: IC50 (eIF1A titration block)) was 4.69 and the IC50 (eIF1A) was 20.4 µM. The pIC50 (eIF1A-RPS10 interaction; Appendix Table S1, read-out: IC50 from the split RL screen) was 4.74, the IC50 (eIF1A-RPS10 interaction) was 14 µM and the “GFP reporter ratio nsp1/gfp, avg” value (NSP1) was 0.4109. The “GFP reporter ratio nsp1/gfp, rep 1” value (NSP1) was 0.4212, the “GFP reporter ratio nsp1/gfp, rep 2” value (NSP1) was 0.4006 and the “ratio (nsp1/gfp)” value (NSP1) was 0.421 and 0.401 and 0.735. The “fluorescence ratio, eIF1A Δ CTT” value (eIF1A without CTT; 1Ai conc. 0.25 uM) was 0.6232 and 0.681, the “fluorescence ratio, eIF1A Δ CTT” value (eIF1A without CTT; 1Ai conc. 0.5 uM) was 0.6378 and 0.5984 and the “fluorescence ratio, eIF1A Δ CTT” value (eIF1A without CTT; 1Ai conc. 1 uM) was 0.6117 and 0.6127. For the same compound, the “fluorescence ratio, eIF1A Δ CTT” value (eIF1A without CTT; 1Ai conc. 2 uM) was 0.4666 and 0.4698, the “fluorescence ratio, eIF1A Δ CTT” value (eIF1A without CTT; 1Ai conc. 4 uM) was 0.4763 and 0.4603 and the “fluorescence ratio, eIF1A Δ CTT” value (eIF1A without CTT; 1Ai conc. 8 uM) was 0.4568 and 0.3937. The “fluorescence ratio, eIF1A Δ CTT” value (eIF1A without CTT; 1Ai conc. 16 uM) was 0.3246 and 0.3079, the “fluorescence ratio, eIF1A Δ CTT” value (eIF1A without CTT; 1Ai conc. 32 uM) was 0.1925 and 0.219 and the “fluorescence ratio, eIF1A Δ CTT” value (eIF1A without CTT; 1Ai conc. 64 uM) was 0.1778 and 0.2. The “fluorescence ratio, eIF1A Δ CTT” value (eIF1A without CTT; 1Ai conc. 256 uM) was 0.2104 and 0.2095, the pIC50 (eIF1A without CTT) was 5.24 and the IC50 (eIF1A without CTT) was 5.7 µM.
In the case of `CCOc1cc(C(=O)Nc2ccc(Cl)c(-c3nc4ccccc4[nH]3)c2)cc(OCC)c1OCC` [1Ai-5677], the “binding to NTT-truncated eIF1A” value (eIF1A without NTT) was “significantly decreased”, the “fluorescence ratio, eIF1A Δ NTT” value (eIF1A without NTT; 1Ai conc. 0.25 uM) was 1 and the “fluorescence ratio, eIF1A Δ NTT” value (eIF1A without NTT; 1Ai conc. 0.5 uM) was 1 and 0.9156. For the same compound, the “fluorescence ratio, eIF1A Δ NTT” value (eIF1A without NTT; 1Ai conc. 1 uM) was 1.054 and 0.8819, the “fluorescence ratio, eIF1A Δ NTT” value (eIF1A without NTT; 1Ai conc. 2 uM) was 0.997 and 1.025 and the “fluorescence ratio, eIF1A Δ NTT” value (eIF1A without NTT; 1Ai conc. 4 uM) was 0.8973 and 1.017. For the same compound, the “fluorescence ratio, eIF1A Δ NTT” value (eIF1A without NTT; 1Ai conc. 8 uM) was 0.994 and 0.865, the “fluorescence ratio, eIF1A Δ NTT” value (eIF1A without NTT; 1Ai conc. 16 uM) was 1.091 and 0.9072 and the “fluorescence ratio, eIF1A Δ NTT” value (eIF1A without NTT; 1Ai conc. 32 uM) was 1.205 and 0.9494. The “fluorescence ratio, eIF1A Δ NTT” value (eIF1A without NTT; 1Ai conc. 64 uM) was 1.39 and 0.8945, the “fluorescence ratio, eIF1A Δ NTT” value (eIF1A without NTT; 1Ai conc. 256 uM) was 1.882 and 1.228 and the pIC50 (eIF1A without NTT) was 3.96. For the same compound, the IC50 (eIF1A without NTT) was 109 µM, the “fluorescence ratio, eIF1A” value (eIF1A; 1Ai conc. 0.25 uM) was 0.8378 and 0.9597 and the “fluorescence ratio, eIF1A” value (eIF1A; 1Ai conc. 0.5 uM) was 0.7937 and 0.9656. The “fluorescence ratio, eIF1A” value (eIF1A; 1Ai conc. 1 uM) was 0.9644 and 1.01, the “fluorescence ratio, eIF1A” value (eIF1A; 1Ai conc. 2 uM) was 1.084 and 0.9877 and the “fluorescence ratio, eIF1A” value (eIF1A; 1Ai conc. 4 uM) was 1.028 and 1.008. For the same compound, the “fluorescence ratio, eIF1A” value (eIF1A; 1Ai conc. 8 uM) was 0.9744 and 0.9518, the “fluorescence ratio, eIF1A” value (eIF1A; 1Ai conc. 16 uM) was 1.11 and 0.9262 and the “fluorescence ratio, eIF1A” value (eIF1A; 1Ai conc. 32 uM) was 1.565 and 1.017. The “fluorescence ratio, eIF1A” value (eIF1A; 1Ai conc. 64 uM) was 1.663 and 1.113, the “fluorescence ratio, eIF1A” value (eIF1A; 1Ai conc. 256 uM) was 1.623 and 1.122 and the IC50 (eIF1A) was 24.8 µM. For the same compound, the IC50 (eIF1A-RPS10 interaction) was 15 µM, the “GFP reporter ratio nsp1/gfp, avg” value (NSP1) was 0.572 and the “GFP reporter ratio nsp1/gfp, rep 1” value (NSP1) was 0.572. The “gfp signal, mean of duplicate wells” value (NSP1) was 1615.5, the “nsp1 signal, mean of duplicate wells” value (NSP1) was 924 and the “ratio (nsp1/gfp)” value (NSP1) was 0.572. For the same compound, the “fluorescence ratio, eIF1A Δ CTT” value (eIF1A without CTT; 1Ai conc. 0.25 uM) was 0.9518 and 1.125, the “fluorescence ratio, eIF1A Δ CTT” value (eIF1A without CTT; 1Ai conc. 0.5 uM) was 0.9965 and 1.042 and the “fluorescence ratio, eIF1A Δ CTT” value (eIF1A without CTT; 1Ai conc. 1 uM) was 1.031 and 1.16. The “fluorescence ratio, eIF1A Δ CTT” value (eIF1A without CTT; 1Ai conc. 2 uM) was 1.066 and 1.079, the “fluorescence ratio, eIF1A Δ CTT” value (eIF1A without CTT; 1Ai conc. 4 uM) was 1.073 and 1.131 and the “fluorescence ratio, eIF1A Δ CTT” value (eIF1A without CTT; 1Ai conc. 8 uM) was 1.007 and 1.089. The “fluorescence ratio, eIF1A Δ CTT” value (eIF1A without CTT; 1Ai conc. 16 uM) was 1.119 and 1.152, the “fluorescence ratio, eIF1A Δ CTT” value (eIF1A without CTT; 1Ai conc. 32 uM) was 1.196 and 1.27 and the “fluorescence ratio, eIF1A Δ CTT” value (eIF1A without CTT; 1Ai conc. 64 uM) was 1.276 and 1.31. For the same compound, the “fluorescence ratio, eIF1A Δ CTT” value (eIF1A without CTT; 1Ai conc. 256 uM) was 1.365 and 1.556, the pIC50 (eIF1A without CTT) was 4.10 and the IC50 (eIF1A without CTT) was 79.9 µM.
